The source of these data is patent publication US4888287A, “Rapid differentiation of fungi from bacteria using polyene antibiotics” (Eastman Kodak Company, priority 1986, dated 1989).

The subject of test [1] is S. aureus. In words: Inhibition of MTT tetrazolium salt reduction by S. aureus, microtitration plate (Example 3, Table IV). In kind it is cell-based, Staphylococcus aureus (ATCC 25923). The note with it: Staphylococcus aureus, 0.5 h, S. aureus (gram +), 540 nm, 37° C., 30 min, read-out: Corrected Percent Inhibition. As to the method:
(§1) gram-negative microorganism Escherichia coli (ATCC 25922), gram-positive microorganism Staphylococcus aureus (ATCC 25923), and Candida albicans yeast cells (ATCC 14053), brain heart infusion broth (BHI) and Sabaroud's dextrose broth (SAB) from Difco Laboratories (Detroit, Michigan, U.S.A.), and Aspergillus flavus (ATCC 20047), a mold from American Type Culture Collection (Rockville, Maryland, U.S.A.).
(§2) E. coli and S. aureus were grown overnight in BHI broth at 37° C. C. albicans and A. flavus were grown overnight at 25° C. in SAB broth with agitation. The cells were harvested by centrifugation, washed and resuspended in 0.05 molar N-2-hydroxyethylpiperazine-N'-2-ethanesulfonic acid (HEPES) buffer (pH 7.8).
(§3) The differentiations of yeast and mold from bacteria were carried out in microtitration plates. The cell suspensions used were like those described in Example 2. The reducible compound used was 3-(4,5-dimethyl-2-thiazolyl)-2,5-diphenyl-2H-tetrazolium bromide (MTT). A composition containing MTT was prepared with the following components: 200 μl MTT solution (5 mg/ml methanol), 200 μl glucose solution (10% glucose in water), 200 μl trimethyl-1,4-benzoquinone ETA and 12 ml of HEPES buffer (0.05 molar, pH 7.8).
(§4) Test solutions were prepared using the following components: 50 μl HEPES buffer, 50 μl filipin polyene antibiotic (12.5 mg/ml dimethylsulfoxide)(serial dilutions of buffer and antibiotic solutions were performed to obtain various antibiotic concentrations), 50 μl of the appropriate cell suspension, i.e. E. coli (about 10^8 cells/ml), S. aureus (about 10^8 cells/ml), C. albicans (about 10^7 cells/ml) and A. flavus, and […] of the MTT composition noted above. Cell Controls contained all reagents except the antibiotic. Background was measured with buffer. Solution Controls contained all reagents except cells.
(§5) Optical density measurements were made at 540 nm using a commercially available spectrophotometer, and the change in optical density (ΔOD) was determined after 30 minutes at 37° C. […] It is apparent that the concentration effective for differentiation of yeast is different than for mold. However, it is well within the skill of a worker in the art to determine the appropriate concentration for a given test.

In the next test the test system is E. coli. In words: Inhibition of RIND XXXV reduction by E. coli, microtitration plate, fluorescence (Example 2, Table III). In kind it is cell-based, Escherichia coli (ATCC 25922). To be noted: Escherichia coli, 0.5 h, E. coli (gram -), 37° C., 30 min, read-out: Corrected Percent Inhibition. The procedure: as §1, §2
(§6) Dispersions containing RIND compounds were prepared by dissolving, for example, RIND VII from Table I above in N,N-dimethylformamide (DMF) at 16 mg compound per ml of solvent. An aliquot (250 μl) of the resulting solution was added to 500 μl of TRITON X-100 surfactant. This mixture was then added dropwise with stirring to 25 ml of 0.05 molar HEPES buffer. A solution containing a water-compatible RIND compound (for example, RIND XXXV) was prepared by dissolving the compound in N,N-dimethylformamide which had been acidified with 0.1% sulfuric acid (16 mg RIND compound per ml of solvent).
(§7) A composition was prepared from the following components: 100 μl RIND XXXV solution (16 mg RIND compound per ml of acidified N,N-dimethylformamide), 200 μl glucose solution (10% in water), 200 μl trimethyl-1,4-benzoquinone ETA solution (1.5 mg/ml methanol) and 10 ml HEPES buffer.
(§8) Test solutions were prepared using the following reagents: 50 μl HEPES buffer, 50 μl filipin polyene antibiotic (12.5 mg/ml dimethylsulfoxide)(serial dilutions of buffer and antibiotic solutions were performed to obtain various antibiotic concentrations), 50 μl of the appropriate cell suspensions, that is, E. coli (about 10^8 cells/ml), S. aureus (about 10^8 cells/ml), C. albicans (about 10^7 cells/ml) and A. flavus, and […] of the RIND composition described above.
(§9) Control solutions were prepared as described in Example 1. Relative fluorescence was measured using a Dynatech MICROFLUOR Reader (Dynatech Laboratories, Alexandria, Virginia) modified to read at excitation 540 nm and emission 620 nm, at zero time and after incubation at 37° C. for 30 minutes. The change in relative fluorescence was then determined as the difference of the two values.

In the next test the test system is A. flavus. The test is described as follows: Inhibition of MTT tetrazolium salt reduction by A. flavus (mold), microtitration plate (Example 3, Table IV). The note with it: Aspergillus flavus, 0.5 h, 540 nm, 37° C., 30 min, read-out: Corrected Percent Inhibition. In kind it is cell-based, Aspergillus flavus (ATCC 20047). As to the method:
as §1, §2, §3, §4, §5

Test [2] has as its system S. aureus. In words: Inhibition of RIND XXXV reduction by S. aureus, microtitration plate, fluorescence (Example 2, Table III). In kind it is cell-based, Staphylococcus aureus (ATCC 25923). The note with it: Staphylococcus aureus, 0.5 h, S. aureus (gram +), 37° C., 30 min, read-out: Corrected Percent Inhibition. As to the method:
as §1, §2, §6, §7, §8, §9

The subject of another test is C. albicans. In words: Inhibition of RIND XXXV reduction by C. albicans, dry analytical element (Example 4, Table V). In kind it is cell-based, Candida albicans (ATCC 14053). The note with it: C. albicans (yeast), 37° C., 30 min. The procedure: as §1, §2
Dispersions containing RIND compounds were prepared by dissolving, for example, RIND VII from Table I above in N,N-dimethylformamide (DMF) at 16 mg compound per ml of solvent. An aliquot (250 μl) of the resulting solution was added to 500 μl of TRITON X-100 surfactant. […]
A standard paper punch was used to cut circular elements (about 0.6 cm in diameter) from the dried strips. […] Buffer solution was applied to separate elements for background readings.
Relative fluorescence (excitation at 540 nm and emission at 620 nm) was measured using a Dynatech MICROFLUOR reader at zero time and after 30 minutes incubation at 37° C., and the change in relative fluorescence was determined.

For the compound `CCCCC[C@@H](O)[C@H]1C(=O)O[C@H](C)[C@@H](O)/C=C/C=C/C=C/C=C/C=C(\C)[C@@H](O)C[C@H](O)C[C@H](O)C[C@H](O)C[C@H](O)C[C@H](O)C[C@@H]1O` [Filipin, filipin], the inhibition (usually the percentage by which the read-out fell short of the control) at 260 µg/mL in the test with S. aureus [1] (0.26 mg/ml) came to 0%; in the test on E. coli (0.26 mg/ml), 0%; in the test with A. flavus (0.26 mg/ml), 0%; with S. aureus [2] (0.26 mg/ml) it was 7.5%. Also, the inhibition at 520 µg/mL with S. aureus [1] (0.52 mg/ml) amounted to 0%; in the test on E. coli (0.52 mg/ml) it was 0%; in the test with A. flavus (0.52 mg/ml), 10.3%; in the test on S. aureus [2] (0.52 mg/ml) it was 8.6%. In addition, the inhibition at 1040 µg/mL in the test with S. aureus [1] (1.04 mg/ml) turned out to be 0%; in the test on E. coli (1.04 mg/ml), 2%; with A. flavus (1.04 mg/ml) it was 19%; in the test with S. aureus [2] (1.04 mg/ml), 14.8%. In addition, the inhibition at 2080 µg/mL in the test on S. aureus [1] (2.08 mg/ml) came out at 0%; in the test with E. coli (2.08 mg/ml), 17.6%; in the test with A. flavus (2.08 mg/ml), 98.3%; in the test on S. aureus [2] (2.08 mg/ml), 18.2%. Besides, the “Corrected Percent Inhibition” value in the test on C. albicans was determined as 76%.
